Results taken from patent US8410178B2, “CIS 3,4-dihydroxy-2-(3-methylbutanoyl)-5-(3-methylbutyl)-4-(4-methylpentanoyl)cyclopent-2-en-1-derivatives, substantially enantiomerically pure compositions and methods” (KinDex Therapeutics, LLC, priority 2010, dated 2013).

Columns and labels:
3T3-L1 adipocytes = assay: Lipogenesis in 3T3-L1 adipocytes (Oil Red O staining); type: cell-based, Murine
Experimental: The effect of (+)-KDT501 on lipogenesis was evaluated in 3T3-L1 adipocytes.
Murine 3T3-L1 preadipocytes (ATCC, Rockville, Md.) were maintained in DMEM (Invitrogen, Rockville, Md.) supplemented with 10% fetal bovine serum (FBS; ATCC). As preadipocytes, 3T3-L1 cells have a fibroblastic appearance. They replicate in culture until they form a confluent monolayer, after which cell-cell contact triggers G0/G1 growth arrest. Subsequent stimulation with 3-isobutyl-1-methylxanthane, dexamethasone, and high does of insulin for two days prompts the cells to undergo post-confluent mitotic clonal expansion, exit the cell cycle, and begin to express adipocyte-specific genes. Approximately five days after induction of differentiation, the cells display the characteristic lipid-filled adipocyte phenotype.
Cells were seeded at an initial density of approximately […] in 24-well plates and allowed to grow for 2 days to confluence. […]
Microscopic evaluation was performed at day 0 and every two days throughout testing to assess preadipocyte differentiation to adipocyte morphology. Intracellular lipid was quantified with Oil Red O staining. […] 150 μL of sample was transferred to a 96 well plate and absorbance was measured at 530 nm using a plate reader (Thermo Electron Corp.). […]

[1] = tested on: rheumatoid arthritis synovial fibroblasts (RASF); assay: IL-1β-mediated inflammatory factors in RASFs; type: cell-based, Human; settings: IL-1β-induced, 50, 25, 12.5, and 6.25 μM
Experimental: The anti-inflammatory effect of (+)-KDT501 was evaluated in rheumatoid arthritis synovial fibroblasts (RASF).
Human RASF cells (Asterand, Detroit, Mich.) were cultured and maintained in DMEM/F12 (1:1) medium in the presence of 10% fetal bovine serum. Cells were subcultured in 24-well plates at a density of 1×10^4 cells per well and allowed to reach 70-80% confluence in two days. Confluent cells in serum-free medium at a final concentration of 0.1% DMSO were incubated for one hour with (+)-KDT501 at varying concentrations (50, 25, 12.5, and 6.25 μM), then stimulated with […] (10 ng/ml) for 20-24 hours. MMP-13 levels in the medium were measured using an ELISA kit (GE Healthcare, Piscataway, N.J.), and PGE2 levels were measured using an Immuno Assay Kit (Assay Designs, Ann Arbor, Mich.).

[2] = biological target: T1, angiotensin II receptor type II (AGTR2) (Homo sapiens, UniProt P50052); assay: Competitive binding to AGTR2 ([125I]CGP 42112A); settings: binding target AGTR2; competitor ligand Angiotensin-II
T1 sequence (P50052 1-363): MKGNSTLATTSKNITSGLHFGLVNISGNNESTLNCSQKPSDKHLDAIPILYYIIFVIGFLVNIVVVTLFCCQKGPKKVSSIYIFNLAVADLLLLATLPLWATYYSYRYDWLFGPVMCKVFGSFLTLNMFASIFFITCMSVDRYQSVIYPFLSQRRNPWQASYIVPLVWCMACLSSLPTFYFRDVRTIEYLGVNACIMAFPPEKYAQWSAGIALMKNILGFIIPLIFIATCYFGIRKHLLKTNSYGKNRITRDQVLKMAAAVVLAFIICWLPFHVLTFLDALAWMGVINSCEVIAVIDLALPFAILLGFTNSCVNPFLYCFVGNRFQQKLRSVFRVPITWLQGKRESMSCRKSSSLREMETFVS

PPARδ = biological target: T2, PPARδ (Homo sapiens, UniProt Q03181); assay: PPARδ luciferase reporter assay; type: cell-based; settings: reporter cells, 20 hours
T2 sequence (Q03181 1-441): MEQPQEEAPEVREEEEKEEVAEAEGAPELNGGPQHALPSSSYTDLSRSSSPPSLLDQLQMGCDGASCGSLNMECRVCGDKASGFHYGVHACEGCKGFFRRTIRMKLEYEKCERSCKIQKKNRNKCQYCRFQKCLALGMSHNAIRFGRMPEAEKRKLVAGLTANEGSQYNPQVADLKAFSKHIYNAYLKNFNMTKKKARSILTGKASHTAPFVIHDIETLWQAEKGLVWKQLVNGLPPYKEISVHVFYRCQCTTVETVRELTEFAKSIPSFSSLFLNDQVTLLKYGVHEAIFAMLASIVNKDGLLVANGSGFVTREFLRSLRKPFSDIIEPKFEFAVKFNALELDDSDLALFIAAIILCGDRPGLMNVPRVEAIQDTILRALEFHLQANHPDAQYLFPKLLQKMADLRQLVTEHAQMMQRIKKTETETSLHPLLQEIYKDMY
Experimental: The functional effect of (+)-KDT501 on PPARα, PPARδ, and PPARγ activity was evaluated using a PPAR reporter assay (INDIGO Biosciences, PA). This assay utilizes non-human mammalian cells engineered to provide constitutive high level expression of PPARα, PPARδ, or PPARγ and containing a luciferase report gene specific to the appropriate PPAR. Following activation by agonist binding, PPAR induces expression of the luciferase reporter gene. Luciferase activity therefore provides a surrogate for measuring PPAR activity in agonist-treated cells.
Reporter cells were plated on a 96-well plate at 100 μL per well, and 100 μL of (+)-KDT501 at various final concentrations (25, 12.5, 6.25, 3.125, 1.56 and 0.78 μM) was added to each well. […] 0.1% DMSO was also used as a negative control for each assay. Plates are incubated for 20 hours in a humidified incubator at 37° C. and 5% CO2. After incubation, cell medium was discarded and the cells were treated with 100 μL of luciferase detection reagent for 15 minutes. Plates were analyzed using a luminometer (Victor2, Perkin Elmer). Average relative light unit (RLU) and standard deviation were analyzed using GraphPad Prism.

For `CC(C)CCC(=O)[C@@]1(O)C(O)=C(C(=O)CC(C)C)C(=O)[C@@H]1CCC(C)C.[K]` [(+)-KDT501, (+)-(4S,5R)-3,4-dihydroxy-2-(3-methylbutanoyl)-5-(3-methylbutyl)-4-(4-methylpentanoyl)cyclopent-2-en-1-one potassium salt], the “lipogenesis (intracellular lipid, Oil Red O)” value (3T3-L1 adipocytes; 3T3-L1 adipocytes, 6.25, 12.5, and 25 μM) was “increased lipogenesis in 3T3-L1 adipocytes in a statistically significant manner”, the adipogenesis (3T3-L1 adipocytes; 3T3-L1 murine fibroblast model) was “induce both lipogenesis and adipogenesis in a dose-dependent manner” and the “expression of MMP-13” value [1] was “inhibited”. For the same compound, the “expression of PGE2” value [1] was “inhibited”, the IC50 [2] was 14 µM and the Ki [2] was 7.1 µM. The nH [2] was 1.4 and the PPARδ activity (PPARδ) was “little or no effect”.
